Experimental data: publication PMC2879007 (Biochemical pharmacology, 2010)
Marks after values point to notes of the source that are not given here.

How the values were obtained:
CYP2D6.1 = CYP2D6.1 (Homo sapiens, UniProt P10635); test: bufotenine production from 5-MeO-DMT by recombinant CYP2D6.1; assay type: in vitro ADME
CYP2D6.2 = CYP2D6.2 (Homo sapiens, UniProt P10635, R296C/S486T); test: bufotenine production from 5-MeO-DMT by recombinant CYP2D6.2; assay type: in vitro ADME
CYP2D6.10 = CYP2D6.10 (Homo sapiens, UniProt P10635, P34S/S486T); test: bufotenine production from 5-MeO-DMT by recombinant CYP2D6.10; assay type: in vitro ADME
[1] = serum pharmacokinetics in wild-type FVB/N mice; assay type: in vivo; settings: for Cmax / MRT / Tmax / half-life: FVB/N (wild-type), mouse, ip; for Cmax / MRT / Tmax / half-life / AUC0→∞: serum
[2] = serum pharmacokinetics in Tg-CYP2D6; assay type: in vivo, mice; settings: for Cmax / MRT / Tmax / half-life: Tg-CYP2D6 (CYP2D6-humanized), mouse, ip; for Cmax / MRT / Tmax / half-life / AUC0→∞: serum
[3] = 5-MeO-DMT depletion and bufotenine formation in human CYP2D6 PM hepatocytes; settings: human, 5-MeO-DMT alone, 2 µM; for hepatocyte CLint at 2 µM: In vitro CLint
[4] = system: human CYP2D6 PM hepatocytes; test: as above
[5] = 5-MeO-DMT depletion and bufotenine formation in human CYP2D6 EM hepatocytes; settings: human, 5-MeO-DMT alone, 2 µM; for hepatocyte CLint at 2 µM: In vitro CLint
[6] = system: human CYP2D6 EM hepatocytes; test: as above
[7] = bufotenine production from 5-MeO-DMT, Vmax/Km
[8] = bufotenine production from 5-MeO-DMT, mean ± SEM
[9] = 5-MeO-DMT O-demethylase activity
[10] = wild-type mice, 2 mg/kg 5-MeO-DMT alone i.p.
[11] = wild-type mice, 5-MeO-DMT 2 mg/kg i.p., harmaline 5 mg/kg i.p.
[12] = Tg-CYP2D6 mice, 2 mg/kg 5-MeO-DMT alone i.p.
[13] = PM hepatocytes 2, with harmaline, 2 µM each
[14] = PM hepatocytes 3, with harmaline, 2 µM each
[15] = PM hepatocytes 4, with harmaline, 2 µM each

Compound: COc1ccc2[nH]cc(CCN(C)C)c2c1 [5-MeO-DMT, 5-Methoxy-N,N-dimethyltryptamine]
- CLint (CYP2D6.1; [7]): 0.44 µL/pmol P450/min
- Vmax (CYP2D6.1; [8]): 12.8 ± 0.4 pmol/pmol P450/min
- Km at 5 min (CYP2D6.1; human, recombinant CYP2D6.1 reconstituted with P450 reductase, pH 7.4): 29.3 ± 4.2 µM
- lower catalytic efficiency (Vmax/Km) compared with wild-type CYP2D6.1 (CYP2D6.2; [9]): 2.6 fold
- CLint (CYP2D6.2; [7]): 0.17 µL/pmol P450/min
- Vmax (CYP2D6.2; [8]): 14.4 ± 0.9 pmol/pmol P450/min
- Km at 5 min (CYP2D6.2; human, recombinant CYP2D6.2 reconstituted with P450 reductase, pH 7.4): 85 ± 19.4 µM
- lower catalytic efficiency (Vmax/Km) compared with wild-type CYP2D6.1 (CYP2D6.10; [9]): 40 fold
- CLint (CYP2D6.10; [7]): 0.011 µL/pmol P450/min
- Vmax (CYP2D6.10; [8]): 10.3 ± 2.2 pmol/pmol P450/min
- Km at 20 min (CYP2D6.10; human, recombinant CYP2D6.10 reconstituted with P450 reductase, pH 7.4): 947 ± 355 µM
- Cmax ([1]; 2 mg/kg): 1.36 ± 0.16 µM
- MRT ([1]; 2 mg/kg): 19.1 min
- Tmax ([1]; 2 mg/kg): 5.3 min
- half-life ([1]; 2 mg/kg): 19.5 ± 12.2 min
- Cmax ([1]; 20 mg/kg): 18.3 ± 2.8 µM
- MRT ([1]; 20 mg/kg): 27.2 min
- Tmax ([1]; 20 mg/kg): 7.5 min
- half-life ([1]; 20 mg/kg): 13.4 ± 1 min
- AUC0→∞ [1, 10]: 25.1 ± 1.3 µmol·min/L
- AUC0→∞ ([1]; wild-type mice, 20 mg/kg 5-MeO-DMT i.p.): 650 ± 78 µmol·min/L
- clearance [1, 10]: 370 ± 20 mL/min/kg
- increase of Cmax by co-administered harmaline [1, 11]: about 1.4 fold
- increase of MRT by co-administered harmaline [1, 11]: ~2.1 fold
- increase of systemic exposure (AUC0→∞) by harmaline pre-treatment [1, 11]: 4.4 fold
- Cmax ([2]; 2 mg/kg): 1.19 ± 0.33 µM
- MRT ([2]; 2 mg/kg): 17.4 min
- Tmax ([2]; 2 mg/kg): 5.8 min
- half-life ([2]; 2 mg/kg): 14.7 ± 9 min
- Cmax ([2]; 20 mg/kg): 18.7 ± 0.9 µM
- MRT ([2]; 20 mg/kg): 23.1 min
- Tmax ([2]; 20 mg/kg): 6.3 min
- half-life ([2]; 20 mg/kg): 13.4 ± 1.4 min
- clearance [2, 12]: 440 ± 50 mL/min/kg
- increase of systemic exposure (AUC0→∞) by harmaline pre-treatment ([2]; Tg-CYP2D6 mice, 5-MeO-DMT 2 mg/kg i.p., harmaline 5 mg/kg i.p.): 3.6 fold
- AUC0→∞ [2, 12]: 21.1 ± 2.3 ^b µmol·min/L
- AUC0→∞ ([2]; Tg-CYP2D6 mice, 20 mg/kg 5-MeO-DMT i.p.): 568 ± 72 µmol·min/L
- hepatocyte CLint at 2 µM ([3]; CYP2D6 PM hepatocytes, PM hepatocytes Mean (N = 4)): 81.9 µL/min/1e6 cells
- half-life at 2 µM ([3]; CYP2D6 PM hepatocytes, In vitro T1/2, PM hepatocytes Mean (N = 4)): 30.8 min
- hepatocyte CLint at 2 µM ([3]; human CYP2D6 PM (poor metabolizer) hepatocytes, PM hepatocytes 1): 66.5 µL/min/1e6 cells
- hepatocyte CLint at 2 µM ([3]; human CYP2D6 PM (poor metabolizer) hepatocytes, PM hepatocytes 2): 95.8 µL/min/1e6 cells
- hepatocyte CLint at 2 µM ([3]; human CYP2D6 PM (poor metabolizer) hepatocytes, PM hepatocytes 3): 88 µL/min/1e6 cells
- half-life at 2 µM ([3]; human CYP2D6 PM (poor metabolizer) hepatocytes, In vitro T1/2, PM hepatocytes 1): 37.2 min
- half-life at 2 µM ([3]; human CYP2D6 PM (poor metabolizer) hepatocytes, In vitro T1/2, PM hepatocytes 2): 27.6 min
- half-life at 2 µM ([3]; human CYP2D6 PM (poor metabolizer) hepatocytes, In vitro T1/2, PM hepatocytes 3): 32.2 min
- half-life at 2 µM ([3]; human CYP2D6 PM (poor metabolizer) hepatocytes, In vitro T1/2, PM hepatocytes 4): 26.1 min
- Ke ([4]; PM hepatocytes 1, 5-MeO-DMT alone, 2 µM): 0.0186 min⁻¹
- Ke ([4]; PM hepatocytes 1, with harmaline, 2 µM each): 0.00086 min⁻¹
- Ke ([4]; PM hepatocytes 2, 5-MeO-DMT alone, 2 µM): 0.0251 min⁻¹
- In vitro T1/2 [4, 13]: cannot be estimated
- Ke [4, 13]: cannot be estimated
- Ke ([4]; PM hepatocytes 3, 5-MeO-DMT alone, 2 µM): 0.0215 min⁻¹
- In vitro T1/2 [4, 14]: cannot be estimated
- Ke [4, 14]: cannot be estimated
- Ke ([4]; PM hepatocytes 4, 5-MeO-DMT alone, 2 µM): 0.0265 min⁻¹
- In vitro T1/2 [4, 15]: cannot be estimated
- Ke [4, 15]: cannot be estimated
- Ke ([4]; PM hepatocytes Mean (N = 4), 5-MeO-DMT alone, 2 µM): 0.0229 min⁻¹
- Ke ([4]; PM hepatocytes Mean (only one sample estimable), with harmaline, 2 µM each): 0.00086 min⁻¹
- half-life at 2 µM ([5]; CYP2D6 EM hepatocytes, In vitro T1/2, EM hepatocytes 1): 32.4 min
- half-life at 2 µM ([5]; CYP2D6 EM hepatocytes, In vitro T1/2, EM hepatocytes 2): 29.9 min
- hepatocyte CLint at 2 µM ([5]; human CYP2D6 EM (extensive metabolizer) hepatocytes, EM hepatocytes 3): 141 µL/min/1e6 cells
- hepatocyte CLint at 2 µM ([5]; human CYP2D6 EM (extensive metabolizer) hepatocytes, EM hepatocytes 4): 51 µL/min/1e6 cells
- hepatocyte CLint at 2 µM ([5]; human CYP2D6 EM (extensive metabolizer) hepatocytes, EM hepatocytes 5): 87.4 µL/min/1e6 cells
- half-life at 2 µM ([5]; human CYP2D6 EM (extensive metabolizer) hepatocytes, In vitro T1/2, EM hepatocytes 3): 25.4 min
- half-life at 2 µM ([5]; human CYP2D6 EM (extensive metabolizer) hepatocytes, In vitro T1/2, EM hepatocytes 4): 34.7 min
- half-life at 2 µM ([5]; human CYP2D6 EM (extensive metabolizer) hepatocytes, In vitro T1/2, EM hepatocytes 5): 20.8 min
- half-life at 2 µM ([5]; human CYP2D6 EM (extensive metabolizer) hepatocytes, In vitro T1/2, EM hepatocytes Mean (N = 5)): 28.6 min
- reduction of in vitro CLint by co-administered harmaline ([6]; CYP2D6 EM hepatocytes, 5-MeO-DMT alone vs with harmaline): over 24 fold
- Ke ([6]; EM hepatocytes 1, 5-MeO-DMT alone, 2 µM): 0.0214 min⁻¹
- Ke ([6]; EM hepatocytes 1, with harmaline, 2 µM each): 0.00259 min⁻¹
- Ke ([6]; EM hepatocytes 2, 5-MeO-DMT alone, 2 µM): 0.0232 min⁻¹
- Ke ([6]; EM hepatocytes 2, with harmaline, 2 µM each): 0.00141 min⁻¹
- Ke ([6]; EM hepatocytes 3, 5-MeO-DMT alone, 2 µM): 0.0273 min⁻¹
- Ke ([6]; EM hepatocytes 3, with harmaline, 2 µM each): 0.00263 min⁻¹
- Ke ([6]; EM hepatocytes 4, 5-MeO-DMT alone, 2 µM): 0.02 min⁻¹
- Ke ([6]; EM hepatocytes 4, with harmaline, 2 µM each): 0.00195 min⁻¹
- Ke ([6]; EM hepatocytes 5, 5-MeO-DMT alone, 2 µM): 0.0333 min⁻¹
- Ke ([6]; EM hepatocytes 5, with harmaline, 2 µM each): 0.00061 min⁻¹
- Ke ([6]; EM hepatocytes Mean (N = 5), 5-MeO-DMT alone, 2 µM): 0.025 min⁻¹
- Ke ([6]; EM hepatocytes Mean (N = 5), with harmaline, 2 µM each): 0.00184 min⁻¹
